The structures appear in SMILES notation.

Series [1] can be described thus: Inhibition of gamma-secretase assessed as reduction in membrane amyloid beta40 production.
Series [2] in a line: AUC (0 to 6 hrs) in rat blood at 10 mg/kg, po. Details: time < 6 hr, dose 10 mg/kg, route oral. It counts as ADME, organism-based.
Series [3] can be described thus: Inhibition of gamma-secretase assessed as reduction in cell amyloid beta40 production.
Series [4] relates to Mus musculus. Kind of series: Reduction of amyloid beta40 level in TgCRND8 mouse plasma at 30 mg/kg, sc after 3 hrs. It counts as functional. Details: scale not given: the % may be the effect or the level left. As to conditions: route subcutaneous.
The nature of series [5]: Inhibition of gamma-secretase-mediated notch processing by whole cell assay.
Series [6] relates to Mus musculus. Nature of the series: Reduction of amyloid beta40 level in TgCRND8 mouse brain drug dosed po once daily for 5 days. Format: functional. As to conditions: 120 h.
The test system of series [7] is Mus musculus. Nature of the series: Reduction of amyloid beta40 level in TgCRND8 mouse plasma drug dosed po once daily for 5 days. It counts as functional. To be noted: 120 h.
Series [8] is described as follows: Ratio of IC50 for gamma-secretase-mediated notch processing to IC50 for gamma-secretase assessed as reduction in cell amyloid beta40 production.
A short description of series [9]: Drug level in rat brain at 10 mg/kg, po. Details: dose 10 mg/kg, route oral. It counts as ADME, organism-based.

With `CN1CC2CCC(C1)N2C(=O)OC1([C@H]2COC[C@@H](C3CC3)N2S(=O)(=O)c2ccc(Cl)cc2)CC1`, the 50% inhibitory concentration (IC50) in series [1] worked out at 2.4 nM; in series [3], 17 nM. The molecule also registered an AUC(0-t) at 6 h in [2] of 2910 ng·h/mL.
`C[C@H]1OC[C@H](C2(OC(=O)N3CC4CCC(C3)N4CCO)CC2)N(S(=O)(=O)c2ccc(Cl)cc2)[C@@H]1C1CC1`: the IC50 in series [1] was determined as 0.9 nM.
With `CC(C)(CO)N1CCN(C(=O)OC2([C@H]3COC[C@@H](c4cc(F)cc(F)c4)N3S(=O)(=O)c3ccc(Cl)cc3)CC2)CC1`, the IC50 in series [1] worked out at 1.4 nM. Moreover, in the series with Mus musculus [4], the Activity is recorded as -68%.
Take `O=C(OC[C@H]1COC[C@@H](c2cc(F)cc(F)c2)N1S(=O)(=O)c1ccc(Cl)cc1)N1CCN(CCO)CC1`: the IC50 in series [1] was 76 nM; in series [3], 95 nM.
As for `O=C(OC1([C@H]2CCC[C@@H](c3cc(F)cc(F)c3)N2S(=O)(=O)c2ccc(Cl)cc2)CC1)N1CCN(CCO)CC1`, in [3], the IC50 was determined as 5 nM.
Regarding `O=C(OC1([C@H]2COC[C@@H](C3CC3)N2S(=O)(=O)c2ccc(Cl)cc2)CC1)N1C2CCC1CNC2`, the IC50 in series [1] came out at 17 nM; in [3] it was 72 nM. The AUC(0-t) at 6 h in series [2] turned out to be 4660 ng·h/mL.
As for `C[C@@H]1CN(C(=O)OC2([C@H]3COC[C@@H](C4CC4)N3S(=O)(=O)c3ccc(Cl)cc3)CC2)CCN1CCO`, in [1], the IC50 was determined as 37 nM.
For `CN1C2CCC1CN(C(=O)OC1([C@H]3COC[C@@H](C4CC4)N3S(=O)(=O)c3ccc(Cl)cc3)CC1)C2`, the values for the IC50 in series [1] and in series [3] were 4.6 nM and 20 nM, respectively. In addition, in series [2], the AUC(0-t) at 6 h amounted to 939 ng·h/mL. Besides, in the series on Mus musculus [4], the Activity is given as -88%.
In the same order, the values of `O=C(OC1([C@H]2COC[C@@H](C3CC3)N2S(=O)(=O)c2ccc(Cl)cc2)CC1)N1CC2CCC(C1)N2` are 7.1 nM, 25 nM, 4360 ng·h/mL and -90%.
`CCN1C2CCC1CN(C(=O)OC1([C@H]3COC[C@@H](C4CC4)N3S(=O)(=O)c3ccc(Cl)cc3)CC1)C2`: the IC50 stood at 10 nM in series [1] and 25 nM in series [3]. This molecule also displayed an AUC(0-t) at 6 h in [2] of 1100 ng·h/mL.
As to `CC(=O)N1C2CCC1CN(C(=O)OC1([C@H]3COC(C)(C)[C@@H](C4CC4)N3S(=O)(=O)c3ccc(Cl)cc3)CC1)C2`, in series [1], the IC50 was 4.6 nM. The molecule also yielded an AUC(0-t) at 6 h in [2] of 6 ng·h/mL.
On to `O=C(OC1([C@H]2COC[C@@H](C3CC3)N2S(=O)(=O)c2ccc(Cl)cc2)CC1)N1CC[C@H](O)C1`, for which the IC50 in [1] came out at 27 nM.
Consider `O=C(OC1([C@H]2COC[C@@H](C3CC3)N2S(=O)(=O)c2ccc(Cl)cc2)CC1)N1CC2CCC(C1)N2CCO`, for which the values for the IC50 in series [1], in [5] and in [3] were 7.9 nM, 194 nM and 15 nM, respectively. In series [2], this molecule returned an AUC(0-t) at 6 h of 1920 ng·h/mL. Besides, the Activity in the series with Mus musculus [4] is recorded as -93%. For the same molecule, the ED50 in the series with Mus musculus [6] was found to be 100 mg/kg; with Mus musculus [7] it was 10 mg/kg. Also, the Ratio IC50 in [8] was found to be 13.
On to `CC(C)(C(=O)O)C1CCN(C(=O)OC2([C@H]3COC[C@@H](C4CC4)N3S(=O)(=O)c3ccc(Cl)cc3)CC2)CC1`, for which the IC50 in [1] is 30 nM. This molecule also showed an AUC in series [9] of 703 ng·h/mL.
`CC(=O)N1C2CCC1CN(C(=O)OC1([C@H]3CO[C@@H](C)[C@@H](C4CC4)N3S(=O)(=O)c3ccc(Cl)cc3)CC1)C2`: the IC50 in series [1] came to 5.4 nM. The AUC(0-t) at 6 h in series [2] was found to be 178 ng·h/mL.
With `C[C@@H]1CN(C(=O)OC2([C@H]3COC[C@@H](c4cc(F)cc(F)c4)N3S(=O)(=O)c3ccc(Cl)cc3)CC2)CCN1CCO`, the IC50 in series [1] stood at 5.5 nM. For the same molecule, the Activity with Mus musculus [4] is recorded as -87%.
On to `CN(C)CC(=O)N1C2CCC1CN(C(=O)OC1([C@H]3COC[C@@H](C4CC4)N3S(=O)(=O)c3ccc(Cl)cc3)CC1)C2`, for which the figures for the IC50 in series [1] and in series [3] were 8.9 nM and 31 nM, respectively. The AUC(0-t) at 6 h in [2] came out at 567 ng·h/mL.
As for `O=C(OC1([C@H]2COC[C@@H](C3CC3)N2S(=O)(=O)c2ccc(Cl)cc2)CC1)N1CC[C@H](NS(=O)(=O)C(F)(F)F)C1`, the IC50 in [1] is 49 nM. The AUC(0-t) at 6 h in series [2] turned out to be 870 ng·h/mL.
As to `C[C@@H]1OC[C@H](C2(OC(=O)N3CC4CCC(C3)N4CCO)CC2)N(S(=O)(=O)c2ccc(Cl)cc2)[C@@H]1C1CC1`, the IC50 in series [1] is 1.5 nM.
In the case of `CC(=O)N1C2CCC1CN(C(=O)OC1([C@H]3COC[C@@H](C4CC4)N3S(=O)(=O)c3ccc(Cl)cc3)CC1)C2`, the IC50 stood at 15 nM in series [1] and 25 nM in series [3]. The same molecule gave an AUC(0-t) at 6 h in series [2] of 871 ng·h/mL.
For the molecule `O=C(OC1([C@H]2COC[C@@H](C3CC3)N2S(=O)(=O)c2ccc(Cl)cc2)CC1)N1C2CCC1CN(CCO)C2`, the IC50 was determined as 15 nM in series [1] and 27 nM in series [3]. Further, in [2], the AUC(0-t) at 6 h was found to be 1280 ng·h/mL.
For `O=C(OC1([C@H]2COC[C@@H](C3CC3)N2S(=O)(=O)c2ccc(Cl)cc2)CC1)N1CC[C@H](OCCO)C1`, in that order: 20 nM, 31 nM and 11 ng·h/mL.
In the case of `CC(=O)N1C2CCC1CN(C(=O)OC1([C@H]3CO[C@H](C)[C@@H](C4CC4)N3S(=O)(=O)c3ccc(Cl)cc3)CC1)C2`, the IC50 in [1] turned out to be 4 nM. The molecule further displayed an AUC(0-t) at 6 h in series [2] of 23 ng·h/mL.
As to `CS(=O)(=O)N1C2CCC1CN(C(=O)OC1([C@H]3COC[C@@H](C4CC4)N3S(=O)(=O)c3ccc(Cl)cc3)CC1)C2`, in series [1], the IC50 was determined as 41 nM.
For the molecule `O=C(OC[C@H]1CCC[C@@H](c2cc(F)cc(F)c2)N1S(=O)(=O)c1ccc(Cl)cc1)N1CCN(CCO)CC1`, the IC50 was 41 nM in [1] and 167 nM in series [3].
Turning to `O=C(O)CC1CCN(C(=O)OC2([C@H]3COC[C@@H](C4CC4)N3S(=O)(=O)c3ccc(Cl)cc3)CC2)CC1`, the IC50 in series [1] was 24 nM. The same molecule gave an AUC in [9] of 2460 ng·h/mL.
`CC(C)(CO)N1CCN(C(=O)OC2([C@H]3COC[C@@H](C4CC4)N3S(=O)(=O)c3ccc(Cl)cc3)CC2)CC1`: the IC50 was determined as 9.5 nM in series [1] and 9 nM in [3]. The molecule further came in with an AUC(0-t) at 6 h in series [2] of 446 ng·h/mL. For the same molecule, the Activity in the series with Mus musculus [4] was -78%.
As to `NC(=O)CC1CCN(C(=O)OC2([C@H]3COC[C@@H](C4CC4)N3S(=O)(=O)c3ccc(Cl)cc3)CC2)CC1`, the IC50 in series [1] stood at 14 nM; in series [3], 41 nM. This molecule also gave an AUC(0-t) at 6 h in [2] of 35 ng·h/mL.
For `O=C(OC1([C@H]2COC[C@@H](c3cc(F)cc(F)c3)N2S(=O)(=O)c2ccc(Cl)cc2)CC1)N1CC[C@H](O)C1`, the IC50 in [1] was 12 nM. For the same molecule, in the series on Mus musculus [4], the Activity came to 21%.
As for `CC1(C)OC[C@H](C2(OC(=O)N3CC4CCC(C3)N4CCO)CC2)N(S(=O)(=O)c2ccc(Cl)cc2)[C@@H]1C1CC1`, the half-inhibitory concentration (IC50) in series [1] turned out to be 1.1 nM. The molecule further showed an AUC(0-t) at 6 h in series [2] of 1370 ng·h/mL.

The record behind these values is ChEMBL document CHEMBL1156082, “Novel orally active morpholine N-arylsulfonamides gamma-secretase inhibitors with low CYP 3A4 liability” (Bioorg Med Chem Lett, 2009).
